Source: patent US20210358575A1, “A METHOD FOR DETERMINING THE EFFICACY OF TREATMENT WITH A COMBINATION OF DRUGS IN A SUBJECT DIAGNOSED WITH A DISEASE AND A METHOD FOR CLASSIFYING THE UTILITY OF DRUG COMBINATIONS IN TREATMENT OF SAID SUBJECT” (priority 2018, published 2021)

Assays:
[1] = tested on: live pathological cells (LPC) in bone marrow samples of AML patients; assay: PharmaFlow PM test: ex vivo drug sensitivity of whole bone marrow samples, population pharmacodynamic models; type: cell-based, human; conditions: typical population value
Protocol: Ex vivo drug sensitivity analysis was made using the PharmaFlow platform (previously termed ExviTech®) maintaining the bone marrow (BM) microenvironment. A minimum BM sample volume between one and two mL was collected by aspiration at AML diagnosis, before starting induction chemotherapy, and was processed by an automated method 24 hours after extraction. Samples were incubated with CYT, IDA and/or CYT+IDA for 48 hours. A more detailed description of the procedure has been published elsewhere (Bennett, et al 2014).
Evaluation of drug response was done by counting the number of live pathological cells (LPC) remaining after incubation at increasing drug concentrations (Upton and Mould 2014). Dying cells (apoptosis) were excluded using Annexin V-FITC. Pharmacological responses were analyzed using PD population-based models (Upton and Mould 2014) which essentially perform the fitting of the dependent variable (natural log of LPC) in a non-linear mixed-effects model to derive typical population values (fixed effects) and the magnitude of inter-patient and residual variability (random effects).
Model development was performed with the first-order conditional estimation method using interaction option with the software NONMEM (v7.2) (Beal, et al 1989-2001), according to the following equation: […]
Where LPC0 (LCTi0) parameter refers to the number of LPC (LCTi) after incubation in the absence of drug, Emax represents the maximum fractional decrease in LPC that the drug can elicit, EC50, is the drug concentration exerting half of Emax, and γ is the parameter governing the steepness of the LPC vs drug concentration (C) curve. For interaction analysis a Surface Interaction model (Greco, et al 1995) was used to estimate the degree of synergy, referred as a parameter, between both drugs. Interpatient variability (IPV) associated to all parameters was described by means of an exponential model of the components of variance. An additive error structure was used for the residual variability. Population PD models were built with bone marrow (BM) samples from 473 patients that were incubated with CYT, 456 with IDA and 443 with CYT+IDA. Bayesian estimation methods were then used to retrieve individual patient parameters based on their available exposure-response measurements in conjunction with the PD population parameters.
Individual response profiles normalized with respect to LPC0 (LCTi0), were integrated between the concentration points corresponding to the 20th and 80th percentiles of the distribution of estimated individual EC50 values, to obtain the values of the areas under the curves (AUCs) that were used as a descriptor of the ex vivo drug effect (i.e. the higher the AUC, the lower the cytotoxic effect (efficacy or potency) of the drug.

[2] = tested on: first-line AML patients treated with CYT+IDA; assay: Validation of PM Test score vs clinical response in 112 first-line AML samples; type: in vivo, human; conditions: 112 AML patients treated with CYT+IDA
From the text: The Precision Medicine (PM) Test as described ranks treatments by a score that estimates the activity of each treatment across a population of patient samples. Higher score represents more ex vivo sensitivity to treatment, while lower score represents less ex vivo sensitivity to treatment, i.e. more ex vivo resistance. A particular format of the results of the PM Test is shown in FIG. 19, panels A and B, wherein the ranking of treatments by activity score from 100%=best to 0%=worst is shown (score may be represented graphically using a colour/tone gradient or categorisation). The following 3 categories are identified:
To validate the predictive power of these PM Test score results, the set of 123 samples treated homogeneously with CYT+IDA that were used in the correlation study of Example 1 were employed. Only 112 samples were used for validation. To evaluate the predictive power of the PM Test score, in the format shown in FIG. 19, panel A referring to a sensitive patient we can only use patients predicted to be sensitive or resistant. Treatments having intermediate scores are not considered sufficiently strong to predict any response. In the case of intermediate scores, other factors such as pharmacokinetics may be more important than the score. On the other hand, extreme scores are more likely to prevail over other factors such as pharmacokinetics.
The set of data of 112 patients treated with CYT+IDA represents a 1st line treatment of AML with a 72% response rate. This means that 72% of these 112 patients achieved Complete Remission (CR) clinically. The majority of patients were sensitive, with fewer resistant patients. Thus, the statistics are improved by calculating the % of cases in which the PM Test score predicted patients to be sensitive to the ex vivo treatment. This means selecting only the treatments to which the patient is expected to be very sensitive, with scores between 80-100%. The % of accurate prediction of sensitive (responsive) patients is referred as the Negative Predicted Value (NPV).
Samples whose score are between this variable threshold and 100% are analysed and predicted as sensitive because they have the top score. The results are shown for the monotherapies CYT and IDA, and for the combination treatment. Focus was placed on the combination treatment CYT+IDA that was administered to patients. Columns 8 to 10 of Table 4 show the results for the combined treatment CYT+IDA for different thresholds. The lowest threshold 55%, which means between 55 and 100%, identifies 93 out of the 112 samples, that would be predicted as sensitive. […] Thus, the prediction accuracy or NPV is 77/93=82.8%. As the threshold is increased (descending the 1st column of Table 4), the range of scores included is narrowed because the maximum is always 100%. Consequently, as the threshold is increased, the total number of samples included diminishes, reaching 0 samples at 100% (100-100%) and 18 samples at 95%. The decrease can be observed in the number of either sensitive or resistant samples (descending columns 8 and 9 of Table 4). […] Thus, the higher the score, the better the prediction (moreover, the intermediate sensitivity values provide less accurate prediction than the extreme values).

[3] = tested on: bone marrow samples of acute lymphoid leukemia (ALL) patients; assay: Ex vivo test of single drugs, EC50 compared with population distribution, acute lymphoid leukemia samples; type: cell-based, human; conditions: ALL second line patient VIVIA-PMALL04001, 48 h
Protocol: Bone marrow samples were obtained from three adult patients diagnosed with MM (VIVIA-PMMM010431, VIVIA-PMMM060111 and VIVIA-PMMM130061) and three adult patients diagnosed with ALL (VIVIA-PMALL07002, VIVIA-PMALL04001 and VIVIA-PMALL09001). Following the same experimental design as described for examples 1 and 3, said bone marrow samples were incubated for 48 h in well plates containing the single drugs shown in FIGS. 21 to 26. After the measurement of pathological populations by flow cytometry, pharmacological response parameters were estimated using population pharmacodynamic models. The most representative parameter of drug potency, the EC50, was used for a comparative analysis of the results provided by said bone marrow samples with respect to the statistical distribution of the same parameter observed in a population of samples and stored in the database. Such populations varied in size depending on the drug, being always over one hundred individuals in the case of MM and between 15 and 21 individuals in the case of ALL.

SMILES: CC(=O)[C@]1(O)Cc2c(O)c3c(c(O)c2[C@@H](O[C@H]2C[C@H](N)[C@H](O)[C@H](C)O2)C1)C(=O)c1ccccc1C3=O [Idarubicin, idarubicin]
- EC50 ([1]; Homo sapiens, AML bone marrow samples, 48 h incubation): 87 nM
- EMAX (maximum fractional decrease in LPC) ([1]; set to 1 in the model, 48 h): 1
- γ (steepness of LPC vs concentration curve) ([1]; 48 h): 1.14
- % Sens. (percentage of patients sensitive to therapy, NPV) ([2]; PM Test score ≥55): 84.8%
- Res. (number of patients resistant to therapy) ([2]; PM Test score ≥55): 12
- Sens. (number of patients sensitive to therapy) ([2]; PM Test score ≥55): 67
- % Sens. (percentage of patients sensitive to therapy, NPV) ([2]; PM Test score ≥60): 84.9%
- Res. (number of patients resistant to therapy) ([2]; PM Test score ≥60): 11
- Sens. (number of patients sensitive to therapy) ([2]; PM Test score ≥60): 62
- % Sens. (percentage of patients sensitive to therapy, NPV) ([2]; PM Test score ≥65): 87.0%
- Res. (number of patients resistant to therapy) ([2]; PM Test score ≥65): 9
- Sens. (number of patients sensitive to therapy) ([2]; PM Test score ≥65): 60
- % Sens. (percentage of patients sensitive to therapy, NPV) ([2]; PM Test score ≥70): 86.6%
- Res. (number of patients resistant to therapy) ([2]; PM Test score ≥70): 9
- Sens. (number of patients sensitive to therapy) ([2]; PM Test score ≥70): 58
- % Sens. (percentage of patients sensitive to therapy, NPV) ([2]; PM Test score ≥75): 85.2%
- Res. (number of patients resistant to therapy) ([2]; PM Test score ≥75): 9
- Sens. (number of patients sensitive to therapy) ([2]; PM Test score ≥75): 52
- % Sens. (percentage of patients sensitive to therapy, NPV) ([2]; PM Test score ≥80): 85.7%
- Res. (number of patients resistant to therapy) ([2]; PM Test score ≥80): 8
- Sens. (number of patients sensitive to therapy) ([2]; PM Test score ≥80): 48
- % Sens. (percentage of patients sensitive to therapy, NPV) ([2]; PM Test score ≥85): 86.5%
- Res. (number of patients resistant to therapy) ([2]; PM Test score ≥85): 7
- Sens. (number of patients sensitive to therapy) ([2]; PM Test score ≥85): 45
- % Sens. (percentage of patients sensitive to therapy, NPV) ([2]; PM Test score ≥90): 88.4%
- Res. (number of patients resistant to therapy) ([2]; PM Test score ≥90): 5
- Sens. (number of patients sensitive to therapy) ([2]; PM Test score ≥90): 38
- % Sens. (percentage of patients sensitive to therapy, NPV) ([2]; PM Test score ≥95): 96.8%
- Res. (number of patients resistant to therapy) ([2]; PM Test score ≥95): 1
- Sens. (number of patients sensitive to therapy) ([2]; PM Test score ≥95): 30
- Res. (number of patients resistant to therapy) ([2]; PM Test score ≥100): 0
- Sens. (number of patients sensitive to therapy) ([2]; PM Test score ≥100): 0
- ex vivo activity [3]: very potent activity
